# Patent US5063243A, “Derivative of caffeic acid and pharmaceutical composition containing the same” (Suntory, Ltd., priority 1988, dated 1991)
# How the values were obtained:
# Type in all cases: biochemical
# 12-lipoxygenase [1] = molecular target: T1, 12-lipoxygenase (Rattus norvegicus, UniProt F1LQ70); assay: 12-lipoxygenase inhibitory activity, Method 3 (rat platelet soluble fraction, 12-HETE production); details: 5 min, sample compound 10 μM, arachidonic acid 40 μM, 5 minutes at 37° C., control without sample compound = 100%, read-out: production index of 12-HETE, Method 3 (%)
# T1 construct: Washed platelet was prepared in the usual way; from tissue; host or cells: rat blood platelets (Method 1: washed platelets; Method 2: frozen, thawed and ultrasonified platelets; Method 3: platelet soluble fraction after freeze-thaw and centrifugation)
# T1 sequence (F1LQ70 1-663): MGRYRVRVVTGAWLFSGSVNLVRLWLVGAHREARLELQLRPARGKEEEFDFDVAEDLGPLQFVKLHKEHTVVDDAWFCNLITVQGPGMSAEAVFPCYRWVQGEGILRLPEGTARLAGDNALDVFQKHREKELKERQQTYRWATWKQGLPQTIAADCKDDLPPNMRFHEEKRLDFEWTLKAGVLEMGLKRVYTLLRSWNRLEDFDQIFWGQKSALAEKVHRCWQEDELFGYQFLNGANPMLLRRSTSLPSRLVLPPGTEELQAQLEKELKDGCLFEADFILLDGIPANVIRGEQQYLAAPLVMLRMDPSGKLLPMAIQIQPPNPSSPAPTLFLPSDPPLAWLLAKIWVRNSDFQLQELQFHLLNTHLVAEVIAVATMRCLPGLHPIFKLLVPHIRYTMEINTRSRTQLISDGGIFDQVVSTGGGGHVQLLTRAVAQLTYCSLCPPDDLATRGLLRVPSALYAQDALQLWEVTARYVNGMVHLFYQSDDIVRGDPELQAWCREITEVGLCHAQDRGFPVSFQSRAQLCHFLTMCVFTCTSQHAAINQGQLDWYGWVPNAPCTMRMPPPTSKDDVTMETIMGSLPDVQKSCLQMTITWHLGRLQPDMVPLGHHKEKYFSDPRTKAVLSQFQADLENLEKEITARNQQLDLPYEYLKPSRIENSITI
# Experimental: (§1) The 12-lipoxygenase inhibitory activity of the compounds of the present invention was measured by conducting the three types of pharmacological tests described below.
# The platelet-rich plasma obtained in the same way as described in Method 2 was washed successively with isotonic buffer solution (A) and isotonic buffer solution (B) [134 mM NaCl, 5 mM D-glucose, 0.1 mM DETA, 0.1 mM EGTA, 15 mM Tris-HCl (pH=7.4)] in that order, and suspended in a hypotonic buffer solution (C) [25 mM Tris-HCl (pH=7.7)]. The suspension was treated by a "freeze-thaw" procedure three times and centrifuged at 10500× g for 60 minutes. An aliquot of the supernatant (platelet soluble fraction) was used as the enzyme solution. To the hypotonic buffer solution (C) were added 1 mM GSH, [^14 C]arachidonic acid (0.025 μCi) (final concentration: 40 μM), the sample compound (final concentration: 10 μM) and the enzyme solution (50 μg protein) and the mixture was reacted for 5 minutes at 37° C. The index of 12-lipoxygenase inhibitory activity was obtained in the same way as described in Method 2.
# (§2) The production indexes of 12-HETE under the inhibitory influence of the compounds of the present invention are shown in Table 2, where the production amount of the control experiment (in the absence of the sample compound) is 100%.
# 12-lipoxygenase [2] = molecular target: T1, 12-lipoxygenase; assay: 12-lipoxygenase inhibitory activity, Method 2 (ultrasonified rat platelet enzyme solution, 12-HETE production); details: 5 min, sample compound 1 μM, arachidonic acid 4.3 μM, 5 minutes at 37° C., control without sample compound = 100%, read-out: production index of 12-HETE, Method 2 (%)
# Experimental: The 12-lipoxygenase inhibitory activity of the compounds of the present invention was measured by conducting the three types of pharmacological tests described below. Citrated blood was collected from the heart of a rat and platelet-rich plasma was prepared in the usual way. The plasma was washed twice with isotonic buffer solution (A) [134 mM NaCl, 5 mM D-glucose, 1 mM EDTA, 1 mM EGTA, 15 mM Tris-HCl (pH=7.4)], frozen and stored at -80° C. It was thawed before use, ultrasonified in ice water and used as the enzyme solution. To the isotonic buffer solution (A) were added 1 mM GSH, the sample compound (final concentration: 1 μM) and the enzyme solution (300 to 500 μg protein) and the mixture was pre-incubated for 5 minutes at 37° C.; then [^14 C]arachidonic acid (0.05 μCi) (final concentration: 4.3 μM) was further added and reacted for 5 minutes. […] The reduction in 12-HETE production was used as the index of 12-lipoxygenase inhibitory activity.
# 12-lipoxygenase [3] = molecular target: T1, 12-lipoxygenase; assay: 12-lipoxygenase inhibitory activity, Method 1 (washed rat platelet, 12-HETE production); details: sample compound 10 μM, 3 to 5 minutes at 37° C., control without sample compound = 100%, read-out: production index of 12-HETE, Method 1 (%)
# Experimental: as §1
# Citrated blood was collected from the abdominal aorta of a rat. Washed platelet was prepared in the usual way, diluted with phosphate buffer (pH=8.0) containing 0.45% NaCl and used as the enzyme solution. To the solution were added the sample compound (10 μM), [^14 C]arachidonicacid (0.2 μCi) and arachidonic acid (3 μg) and the mixture was reacted for 3 to 5 minutes at 37° C. The reaction mixture was developed by thin layer chromatography and 12-HETE was identified by a radio chromato scanner. The reduction in 12-HETE production which resulted was used as the index of 12-lipoxygenase inhibitory activity.
# as §2
Compound,activity at 10 µM (12-lipoxygenase [1]) [%],activity at 1 µM (12-lipoxygenase [2]) [%],activity at 10 µM (12-lipoxygenase [3]) [%]
"COc1ccc(CCOC(=O)C(C#N)=Cc2ccc(O)c(O)c2)cc1 [compound 13, 4-Methoxyphenethyl 2-cyano-3-(3,4-dihydroxyphenyl)-2-propenoate]",19.5,–,–
"N#CC(=Cc1ccc(O)c(O)c1)C(=O)OCCc1cccs1 [compound 15, 2-(2-Thienyl)ethyl 2-cyano-3-(3,4-dihydroxyphenyl)-2-propenoate]",–,8.7,–
"COc1ccccc1CCOC(=O)C(C#N)=Cc1ccc(O)c(O)c1 [compound 14, 2-Methoxyphenethyl 2-cyano-3-(3,4-dihydroxyphenyl)-2-propenoate]",19.1,–,–
"N#CC(=Cc1ccc(O)c(O)c1)C(=O)OCCc1ccccc1 [Compound No. 9, Phenethyl 2-cyano-3-(3,4-dihydroxyphenyl)-2-propenoate]",25.1,10,–
"CC(C)OC(=O)C(C#N)=Cc1ccc(O)c(O)c1 [Compound No. 6, isopropyl 2-cyano-3-(3,4-dihydroxyphenyl)-2-propenoate]",–,–,31.4
"N#CC(=Cc1ccc(O)c(O)c1)C(=O)OCCOc1ccccc1 [compound 18, 2-Phenoxyethyl 2-cyano-3-(3,4-dihydroxyphenyl)-2-propenoate]",–,8.5,–
"CCOC(=O)C(C#N)=Cc1ccc(O)c(O)c1 [Compound No. 1, Ethyl 2-cyano-3-(3,4-dihydroxyphenyl)-2-propenoate]",–,–,38.1
"N#CC(=Cc1ccc(O)c(O)c1)C(=O)OCCCCc1ccccc1 [compound 11, Phenylbutyl 2-cyano-3-(3,4-dihydroxyphenyl)-2-propenoate]",–,14.2,–
"N#CC(=Cc1ccc(O)c(O)c1)C(=O)OCC=Cc1ccccc1 [compound 17, 3-Phenyl-2-propenyl 2-cyano-3-(3,4-dihydroxyphenyl)-2-propenoate]",–,13.2,–
"COC(=O)C(C#N)=Cc1ccc(O)c(O)c1 [Compound No. 5, methyl 2-cyano-3-(3,4-dihydroxyphenyl)-2-propenoate]",–,–,36
"O=c1cc(-c2ccccc2)oc2cc(O)c(O)c(O)c12 [Baicalein, baicalein, reference compound]",22.7,9.8,27
"N#CC(=Cc1ccc(O)c(O)c1)C(=O)OCCCc1ccccc1 [compound 10, Phenylpropyl 2-cyano-3-(3,4-dihydroxyphenyl)-2-propenoate]",–,12.1,–
